PMC8410669 (Neuropharmacology, 2021)

Assays:
[1] = tested on: δ-opioid receptor (DOR); conditions: ref Stanczyk et al., 2019; cited from earlier work
[2] = tested on: C57BL/6 mice; experiment: Naloxone-precipitated opioid withdrawal paradigm; assay type: in vivo, mouse; conditions: morphine 10 mg/kg s.c. or oxycodone 3.5 mg/kg s.c. twice a day for 5 consecutive days
[3] = tested on: MOR; conditions: ref Kandasamy et al., 2021; cited from earlier work
[4] = ref Kandasamy et al., 2021; cited from earlier work
[5] = tested on: female C57Bl/6 mice; experiment: Respiratory and heart rate measurements; assay type: in vivo, mouse
[6] = high dose 30 mg/kg s.c., compared with vehicle

## Cc1ccccc1COc1ccc(C2C3=C(CC(C)(C)CC3=O)OC3=C2C(=O)CC(C)(C)C3)cc1 [BMS-986187]
[1]
  G protein activation vs β-arrestin recruitment: enhance G protein activation to a greater extent than β-arrestin recruitment

## COc1ccc2c3c1O[C@H]1C(=O)CC[C@@]4(O)[C@@H](C2)N(C)CC[C@]314 [oxycodone]
[2]
  naloxone-precipitated withdrawal syndrome of the opioid: mild withdrawal syndrome

## COc1ccc(C2SCCN2S(=O)(=O)c2ccc(Cl)cc2)cc1Br (centres unmarked) [BMS-986122]
[3]
  G protein activation vs β-arrestin recruitment: enhance G protein activation to a greater extent than β-arrestin recruitment
[4]
  antinociception and side effects in vivo: produces antinociception with reduced side effects

## CN1CC[C@]23c4c5ccc(O)c4O[C@H]2[C@@H](O)C=C[C@H]3[C@H]1C5 [morphine]
[5]; [6]
  breathing rate (respiratory depression): caused significant respiratory depression
  heart rates: decrease in heart rates
[5]; mice
  dose for respiratory depression relative to dose required for analgesia: three to five times
[2]
  naloxone-precipitated withdrawal syndrome of the opioid: mild withdrawal syndrome
